“Also recorded” adds a separate entry of the source. Ends that are not written are not given here.
Experiments:
[1] = target: T1, Spi-1 ETS domain (Homo sapiens, UniProt P17947); test: GST fusion pull-down assay with radiolabeled Spi-1 ETS domain probe; type: binding; conditions: autoradiography, FIG. 5
T1 construct: made in house; host or cells: in vitro translation, rabbit reticulocyte lysate (TNT T7 Quick Coupled, Promega), 35S-methionine label
Method: (§1) Interaction of the indicated probes is retained to the control peptides IE2 291-343 and IE2 291-364.
(§2) • Cell Culture. HeLa cells (Strain S3) were obtained by ATCC and cultured per their recommendations. Briefly, the cells were grown in Dulbecco modified Eagle medium (DMEM) containing 10% FBS and 0.5% penicillin-streptomycin. Every three days cells were split 1:10 using Trypsin (0.25%) EDTA (0.1%) (Cellgro) to detach the cells. • Reporter Constructs and Expression Vectors. The human IL1B promoter regions (−131+12 and −59/+12 and its mutants (FIG. 1A) were generated by polymerase chain reaction (PCR) and inserted into pGL3-Basic vector (Promega) at Mlu I and BgI II or Hind III sites to construct promoter-luciferase reporter plasmids. The HCMV IE expression vectors pEQ273 and pEQ326 contain the genomic HCMV IE DNA inserted into pGEM1 vector. The plasmids expressing full-length NFIL6 and a truncated version with an internal deletion between the two Spl I restriction sites were constructed by inserting the NFIL6 cDNAs into expression vectors pcDNA3.1 or pcDNA1 (Invitrogen) (Tsukada, J., K. Saito, et al. (1994) Mol Cell Biol 14(11): 7285-97). The expression vector containing the bZIP region of NFIL6 was constructed by inserting a PCR-amplified fragment of NFIL6 encoding amino acids 269-345 into pcDNA3.1 (Yang, Z., N. Wara-Aswapati, et al. (2000) J Biol Chem 275(28): 21272-7). • Transfections and Reporter Gene Assays. HeLa (S3) cells were transfected with expression vectors and luciferase reporter plasmids using Effectene reagents (Qiagen Inc.). Cells were seeded into 24-well plates 24 hours before transfection. […] Expression from these vectors was confirmed by western blotting. Twenty-four or forty-eight hours after transfection, the activities of luciferase and β-galactosidae activity were determined (using reagents from Promega) to measure promoter activity and allow normalization of luciferase activity in each experiment, respectively. […] Gels were stained with SimplyBlue Safestain (Invitrogen) for protein determination and analyzed for binding using autoradiography. […]

[2] = target: T2, C/EBPβ bZIP domain (Homo sapiens, UniProt P17676); test: GST fusion pull-down assay with radiolabeled C/EBPβ bZIP domain probe; type: binding; conditions: autoradiography, FIG. 5
T2 construct: PCR-amplified fragment of NFIL6 encoding amino acids 269-345 into pcDNA3.1; made in house; host or cells: in vitro translation, rabbit reticulocyte lysate (TNT T7 Quick Coupled, Promega), 35S-methionine label
Method: as §1, §2

[3] = target: T3, IE2 (Human cytomegalovirus, UniProt P19893); test: GST fusion pull-down assay with radiolabeled IE2 probe; type: binding; conditions: autoradiography, FIG. 5
T3 construct: made in house; host or cells: in vitro translation, rabbit reticulocyte lysate (TNT T7 Quick Coupled, Promega), 35S-methionine label
Method: as §1, §2

[4] = tested on: IL-1β promoter; test: IL-1β promoter (HT) luciferase gene reporter assay, transient transfection of HeLa-S3 cells with Spi-1 and C/EBPβ expression vectors; type: cell-based, human; conditions: for inhibition of cooperative transactivation of the IL-1β promoter: HT reporter with Spi-1 and C/EBP, absence of full-length IE2, titrated fragment vector, FIG. 2A
Description: FIGS. 1A-1D depict cooperative transactivation of the IL-1B promoter by Spi-1, C/EBPβ and IE2. FIG. 1A is a schematic of the IL-1B promoter showing two composite Spi-1-C/EBPβ binding sites in proximity to the transcription start site. The full-length promoter (HT) was spliced into a vector containing the gene reporter firefly luciferase and used in transient transfection assays in HeLa-S3 cells. FIG. 1B depicts dose-response of HT reporter to titrated Spi-1 expression vector and a fixed amount of cotransfected C/EBPβ expression vector. FIG. 1C depicts dose-response of HT reporter to titrated C/EBPβ expression vector and a fixed amount of Spi-1 expression vector. FIG. 1D depicts functional cooperativity with IE2. The HT reporter was contransfected with titrated Spi-1 expression vector (open bars) or fixed amount of C/EBPβ expression vector (checkerboard bars), or both C/EBPβ and IE2 expression vectors (hatched bars).
The data shown here are pooled from three independent experiments. […] The indicated transfection groups were con-transfected with titrated amounts of IE2 291-364 or 291-343 expression vectors. […] The experiment described by FIG. 2B is similar to that described by FIG. 2A except that wild type IE2 was also added to the indicated transfection groups. These are pooled data from three independent experiments.
• Cell Culture. HeLa cells (Strain S3) were obtained by ATCC and cultured per their recommendations. Briefly, the cells were grown in Dulbecco modified Eagle medium (DMEM) containing 10% FBS and 0.5% penicillin-streptomycin. Every three days cells were split 1:10 using Trypsin (0.25%) EDTA (0.1%) (Cellgro) to detach the cells. • Reporter Constructs and Expression Vectors. The human IL1B promoter regions (−131+12 and −59/+12 and its mutants (FIG. 1A) were generated by polymerase chain reaction (PCR) and inserted into pGL3-Basic vector (Promega) at Mlu I and BgI II or Hind III sites to construct promoter-luciferase reporter plasmids. The HCMV IE expression vectors pEQ273 and pEQ326 contain the genomic HCMV IE DNA inserted into pGEM1 vector. The plasmids expressing full-length NFIL6 and a truncated version with an internal deletion between the two Spl I restriction sites were constructed by inserting the NFIL6 cDNAs into expression vectors pcDNA3.1 or pcDNA1 (Invitrogen) (Tsukada, J., K. Saito, et al. (1994) Mol Cell Biol 14(11): 7285-97). […] Twenty-four or forty-eight hours after transfection, the activities of luciferase and β-galactosidae activity were determined (using reagents from Promega) to measure promoter activity and allow normalization of luciferase activity in each experiment, respectively. […]

[5] = tested on: GFP expression vector; test: Specificity control: expression of control GFP vector by flow cytometry in HeLa-S3 cells; type: cell-based; conditions: HeLa-S3, cotransfection, 24 hours, FIG. 4D
Method: (§3) FIGS. 4A-4D. […] FIG. 4D is another specificity control showing that a control GFP expression vector was not affected by either IE2 291-343 or IE2 291-364. HeLa-S3 cells were transfected with both a GFP expression vector and cotransfected with either E2 291-343 or IE 291-364 expression vectors and GFP expression analyzed 24 hours later by a fluorescence activated cell sorter.
(§4) Because the IE2 291-364 region was previously mapped as one of three TBP binding sites on IE2, it was possible that the inhibitory function was due to interaction with TBP. To exclude this possibility, the expression of two other genes that contain TATA boxes in their promoters were investigated. First, an observed the expression of C/EBPβ from the expression vector by western blot (FIG. 4C) was conducted. […] Second, His-tagged inhibitors were cotransfected with ev GFP and the geometric mean brightness of transfected cells measured by flow cytometry (FIG. 4D). […] It is believed that the basis for the interaction is localized to residues 315-328 of the IE2 molecule because a variant of IE2 291-364 missing the 315-328 region (delA) lacks binding to Spi-1 ETS domain in a GST fusion pull-down assay (FIG. 5).

[6] = tested on: IL-1β promoter reporter; test: Full-length IL-1β regulatory region luciferase reporter in LPS-stimulated RAW264.7 monocytic cells; type: cell-based
Description: FIG. 3 depicts that IE2 291-364 fragment inhibits full-length IL-1β reporter in the monocytic cell line RAW264.7. A luciferase gene reporter was made by splicing the native IL-1β upstream fragment (XT), which contains the enhancer through promoter sequences, upstream of the luciferase gene. This was cotransfected (in titrated doses) with pCDNA 3.1/V5-His empty vector (control) or pCDNA 3.1/V5-His IE2 291-364 by calcium phosphate precipitation into RAW 264.7 cells. To activate the reporter, cells were stimulated with LPS.
FIG. 6 depicts increasing amounts of vector expressing either IE2 291-364Δ315-328 or IE2 291-364 transfected into RAW cells with full length IL-1β regulatory protein as a luciferase reporter. After transient transfection by CaPO4, RAW cell lysates were used for measurement by luminometry and results normalized to β-galactosidase activity introduced by a co-transfected β-galactosidase expression vector to control for transfection efficiency. Values for IE2 291-364Δ315-328 are reported as percentages of relative luciferase activity compared to the wild-type fragment 315-264, as shown.
To further verify the effect of IE2 291-364, a test was conducted in the RAW 264.7 cell line. […] When the RAW 264.7 cell line was treated with the bacterial cell wall product LPS, it produced IL-1β similar to what normal monocytes would do. The IE2-291-364 peptide inhibited IL-1β promoter reporter by about 50% in this system (FIG. 3).
In order to more rigorously test the inhibitory capabilities of the IE2 peptides on IL1B gene expression, a complete monocyte-specific 3.8 kbp regulatory region of the IL1B gene containing both the LPS-responsive enhancer and the cell-type specific Spi-1-dependent promoter (Shirakawa, F., K. Saito, et al. (1993). Mol Cell Biol 13(3): 1332-44) was transfected as a luciferase reporter into LPS-treated RAW264.7 monocyte cells.

[7] = tested on: C/EBPβ; test: Specificity control: C/EBPβ expression by western blot of transfected HeLa-S3 lysates; type: cell-based; conditions: HeLa-S3 cell lysates, FIG. 4C
Method: as §3, §4

T3 sequence (P19893 whole entry, the tested form may be a part): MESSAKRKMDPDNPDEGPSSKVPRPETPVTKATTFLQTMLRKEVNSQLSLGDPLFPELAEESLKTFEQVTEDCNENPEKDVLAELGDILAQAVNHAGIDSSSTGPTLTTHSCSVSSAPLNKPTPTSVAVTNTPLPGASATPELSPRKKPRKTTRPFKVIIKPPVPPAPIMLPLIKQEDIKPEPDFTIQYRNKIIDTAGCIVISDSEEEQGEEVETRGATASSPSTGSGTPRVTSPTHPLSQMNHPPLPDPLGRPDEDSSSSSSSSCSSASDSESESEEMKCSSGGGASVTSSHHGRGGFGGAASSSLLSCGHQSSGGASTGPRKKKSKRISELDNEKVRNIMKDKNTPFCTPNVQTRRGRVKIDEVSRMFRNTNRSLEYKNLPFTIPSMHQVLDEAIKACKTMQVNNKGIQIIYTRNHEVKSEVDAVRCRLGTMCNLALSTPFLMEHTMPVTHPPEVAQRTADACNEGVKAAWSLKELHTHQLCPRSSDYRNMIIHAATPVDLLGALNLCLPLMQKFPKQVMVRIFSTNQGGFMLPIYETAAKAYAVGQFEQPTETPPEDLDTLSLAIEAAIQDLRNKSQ
T2 sequence (P17676 269-345): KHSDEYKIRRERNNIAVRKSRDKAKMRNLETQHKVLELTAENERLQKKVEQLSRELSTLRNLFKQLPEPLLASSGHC

Substance | interaction with Spi-1 ETS domain probe [1] | interaction with C/EBPβ bZIP domain probe [2] | interaction with IE2 probe [3] | inhibition of cooperative transactivation of the IL-1β promoter [4] | effect on GFP expression from control GFP vector [5] | also measured
delA (SSHHGRGGFGGAASSSLLSCGHQSRISELDNEKVRNIMKDKNTPFCTPNVQTRRGRVKID; not fully specified; cysteine pairing not given here) [reference compound] | lacks binding; also recorded: loss of interaction | loss of interaction | loss of interaction | – | – | –
GFP-IE2 291-343 (SSHHGRGGFGGAASSSLLSCGHQSSGGASTGPRKKKSKRISELDNEKVRNIMK; also: GFP fusion) | – | – | – | – | – | inhibition of IL-1β promoter (HT reporter) activity by GFP fusion product ([4]; Spi-1 and C/EBPβ transactivation, GFP-expressing cells purified by FACS, FIG. 4B): inhibition of IL-1β promoter activity
full length wild-type IE2: CMV encoded transactivator Immediate Early 2 protein, full length | – | – | – | – | – | increase of IL-1β promoter reporter activity ([4]; full length wild-type IE2 added to Spi-1 and C/EBPβ transfection, HeLa-S3, FIG. 1D): 4-10 fold
IE2 291-343: hCMV IE2 protein amino acid residues 291-343 | retained | retained | retained | inhibited | not affected | –
IE2 291-364: hCMV IE2 protein amino acid residues 291-364, expressed from vector (His tag or GST fusion) | retained | retained | retained | inhibited | not affected | dose dependence of inhibition of 3.8 kbp IL1B regulatory region reporter activity ([6]; LPS-treated RAW264.7, His-tagged expression vector, FIG. 6): dose-dependent inhibition; inhibition of full-length IL-1β reporter (XT) ([6]; RAW264.7, LPS stimulated, cotransfected pCDNA 3.1/V5-His IE2 291-364, FIG. 3): inhibits; inhibition of IL-1β promoter reporter ([6]; RAW 264.7 cells treated with LPS, FIG. 3): about 50%; effect on expression of C/EBPβ protein (western blot) [7]: does not inhibit
